US11452712B2, “Methods and compositions involving (S)-bucindolol” (ARCA BIOPHARMA, INC., priority 2008, dated 2022)

Key:
β1 389 Arg/Arg receptor = target: T1, β1 389 Arg/Arg receptor (Homo sapiens, UniProt P08588, G389R); assay: Competition binding in human LV membranes, β1 389 Arg/Arg
T1 construct: left ventricular membranes prepared from one patient who had the β1 389 Arg/Arg receptor; from tissue; host or cells: human left ventricular membranes, one patient, genotype 389 Arg/Arg
Procedure: (§1) FIG. 14A, 14B. 14A—Competition curve between S- or R-bucindolol in human LV membranes that are 86% β1. AR and genotypically 389 Arg/Arg. The respective Kis are 0.49 nM and 14.0 nM for the S- and R-isomers. 14B—Competition curve between S- or R-bucindolol in human LV membranes that are 83% β1. AR and genotypically 389 Gly/Gly. The respective Kis are 0.59 nM and 26.3 nM for the S- and R-isomers.
(§2) FIG. 14 gives the binding of S- and R-bucindolol in left ventricular membranes prepared from one patient who had the β1 389 Arg/Arg receptor (FIG. 14A), and another with the Gly/Gly (FIG. 14B) genotype. As can be observed, the S-isomer has much higher affinity, in both genotypes. In addition, the Kis are similar for both the S- (0.5-0.6 nM) and R- (around 14-26 nM) isomers in the Arg/Arg and Gly/Gly preparations. Similar results were obtained in the presence of Gpp(NH)p.

β1 389 Gly/Gly receptor = target: T2, β1 389 Gly/Gly receptor (Homo sapiens, UniProt P08588); assay: Competition binding in human LV membranes, β1 389 Gly/Gly; details: 83% β1 AR, genotype 389 Gly/Gly
T2 construct: human LV membranes that are 83% β1; AR and genotypically 389 Gly/Gly; from tissue; host or cells: human left ventricular membranes, one patient, genotype 389 Gly/Gly
Procedure: as §1, §2

[1] = system: Human umbilical vein endothelial cells; assay: CaI-stimulated NO/ONOO− release ratio in HUVECs; assay type: cell-based; details: for favorable effect on endothelial function as compared to bucindolol racemate: NO and ONOO− release, HUVECs; for increase in NO/ONOO− ratio: 1.0 μM drug
Procedure: (§3) Human umbilical vein endothelial cells were isolated into primary cultures from healthy female donors by Clonetics (San Diego, Calif.) and purchased as proliferating cells. All cell culture donors were healthy, with no pregnancy or prenatal complications. None of the donors took any drugs regularly and all were nonsmokers and consumed regular caloric/content diet. The cultured cells were incubated in 95% air/5% CO2 at 37° C. and passage by an enzymatic (trypsin) procedure. The confluent cells (4 to 5×10^5 cells per 35-mm dish) were placed with minimum essential medium containing 3 mM L-arginine and 0.1 mM (6R)-5,6,7,8-tetrahydrobiopterin (BH4). Before the experiments, the cells (from second or third passage) were rinsed twice with Tyrode-HEPES buffer with 1.8 mM CaCl2. Bucindolol and its enanatiomers were obtained from Arca Discovery (Denver, Colo.).
(§4) Measurement of NO was carried out with electrochemical nanosensors (FIG. 1). Their design was based on previously developed and well-characterized chemically modified carbon-fiber technology (Lvovich and Scheeline, 1997; Malinski and Taha, 1992). Each of the nanosensors was constructed by depositing a sensing material on the tip of a carbon fiber (length 4-5 μm, diameter 0.2-0.5 μm). The fibers were sealed with nonconductive epoxy and electrically connected to copper wires with conductive silver epoxy. The inventors used a conductive film of polymeric nickel (II) tetrakis (3-methoxy-4-hydroxyphenyl) porphyrin for the NO-sensor.
(§5) The quantification of each analyte (concentration in nmol/L) was performed using a maximum current from amperograms and standard calibration curves. The reproducibility of measurements with nanosensors is relatively high, as previously described (Lvovich and Scheeline, 1997; Malinski and Taha, 1992). […] The sensors were slowly raised 5±2 μm from the surface of a single endothelial cell.
The most comprehensive measurement of endothelial function is the ratio of NO to
ONOO^− following treatment with these agents. […] The basis for these differences is not understood but may be due to genetic variability in the eNOS protein. Bucindolol racemate (1.0 μM) increased the NO/ONOO^− ratio in white donors (49%), Mexican American donors (23%), and African American donors (38%) as shown in FIGS. 11-13. […] Again, the favorable effects of bucindolol and its enanatiomers were much more apparent at the higher dose (10.0 μM) by at least two fold. The effect at the high concentration was especially evident in higher risks populations (African Americans, Mexican Americans).

[2] = system: Human umbilical vein endothelial cells; assay: CaI-stimulated NO release in HUVECs (electrochemical nanosensor); assay type: cell-based; details: 1.0 μM drug, 6 hr pretreatment; for NO release: 1.0 μM CaI stimulation, mean±S.D.; for increase in NO release: versus control
Procedure: as §3, §4
The NO nanosensors (diameter 1-2 μm) with a platinum wire (0.1 mm) counter electrode and saturated calomel reference electrode (SCE) were applied. Differential pulse voltammetry (DPV) and amperometry were performed with a computer-based Gamry VFP600 multichannel potentiostat. DPV was used to measure the basal NO concentrations, and amperometry was used to measure changes in NO concentrations from its basal level with time. The DPV current at the peak potential characteristic for NO oxidation (0.65 V) […] was directly proportional to the local concentrations of these compounds in the immediate vicinity of the sensor. Linear calibration curves (current vs. concentration) were constructed for each sensor from 10 nM to 3 μM before and after measurements with aliquots of NO standard solutions, respectively. The detection limit of the sensors was 1.0 nM.
as §5
(§6) The HUVEC preparation is stable over the course of these experiments with the cells remaining viable and active responses to NO stimulation in culture for >24 hours. For robust statistical analysis, randomly selected cells were used for each concentration and type of drug used in these analyses.

[3] = system: Human umbilical vein endothelial cells; assay: CaI-stimulated ONOO− release in HUVECs (nanosensor); assay type: cell-based; details: 1.0 μM drug; for ONOO− levels: CaI stimulation, mean±S.D.; for reduction of ONOO− levels: versus control
Text: FIG. 1. Schematic diagram of a NO nanosensor placed in close proximity to the surface of a single endothelial cell. The nanosensor measures the levels of NO, O2^−, and ONOO^− from the intact endothelium in real time. The sensors are made by depositing a sensing material on the tip of carbon fiber with a diameter of about 0.5 μm. The fibers are sealed with nonconductive epoxy and electrically connected to wires (gold, copper) with conductive silver epoxy.
as §3, §5, §6

[4] = cited from earlier work
β1AR Arg/Arg = target: T3, β1AR Arg/Arg (Homo sapiens, UniProt P08588, G389R); assay: Force development in isolated failing human right ventricular trabeculae, β1AR Arg/Arg; assay type: cell-based
T3 construct: isolated failing human right ventricular trabeculae; from tissue; host or cells: isolated failing human right ventricular trabeculae, β1AR Arg/Arg genotype

β1AR Gly carrier = target: T4, β1AR Gly carrier (Homo sapiens, UniProt P08588); assay: Force development in isolated failing human right ventricular trabeculae, β1AR Gly carrier; assay type: cell-based
T4 construct: isolated failing human right ventricular trabeculae; from tissue; host or cells: isolated failing human right ventricular trabeculae, β1AR 389 Gly carrier genotypes

[5] = human LV membranes, 86% β1 AR, genotype 389 Arg/Arg
[6] = span over the Arg/Arg and Gly/Gly preparations

T1 sequence (P08588 whole entry G389R): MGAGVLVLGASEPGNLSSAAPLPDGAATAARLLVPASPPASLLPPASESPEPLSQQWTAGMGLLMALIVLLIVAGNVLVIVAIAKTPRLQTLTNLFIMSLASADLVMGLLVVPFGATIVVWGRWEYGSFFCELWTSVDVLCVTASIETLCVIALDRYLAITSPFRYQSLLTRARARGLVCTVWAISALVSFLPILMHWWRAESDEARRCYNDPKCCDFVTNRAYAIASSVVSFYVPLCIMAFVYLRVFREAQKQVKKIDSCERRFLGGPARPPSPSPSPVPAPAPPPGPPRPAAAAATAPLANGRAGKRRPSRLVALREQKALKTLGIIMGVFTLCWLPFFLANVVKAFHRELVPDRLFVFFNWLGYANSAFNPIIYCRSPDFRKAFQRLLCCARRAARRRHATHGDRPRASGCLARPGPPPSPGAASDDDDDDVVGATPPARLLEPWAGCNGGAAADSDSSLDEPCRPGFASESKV
T3 sequence (P08588 whole entry G389R): as above
T4 sequence (P08588 whole entry): as the sequence (P08588 whole entry G389R) above, with R389G counted along it
T2 sequence (P08588 whole entry): as the sequence (P08588 whole entry G389R) above, with R389G counted along it

SMILES	Ki (β1 389 Arg/Arg receptor; [5])	Ki (β1 389 Arg/Arg receptor; [6])	Ki (β1 389 Gly/Gly receptor)	favorable effect on endothelial function as compared to bucindolol racemate [1]	NO release ([2]; African American donors)	increase in NO release ([2]; African American donors)	NO release ([2]; Mexican American donors)	increase in NO release ([2]; Mexican American donors)	NO release ([2]; non-Hispanic white donors)	increase in NO release ([2]; non-Hispanic white donors)	ONOO− levels ([3]; African American donors)	reduction of ONOO− levels ([3]; African American donors)	ONOO− levels ([3]; Mexican American donors)	reduction of ONOO− levels ([3]; Mexican American donors)	ONOO− levels ([3]; non-Hispanic white donors)	reduction of ONOO− levels ([3]; non-Hispanic white donors)	further results
CC(C)(Cc1c[nH]c2ccccc12)NCC(O)COc1ccccc1C#N (single isomer, unassigned) [(R)-bucindolol]	14 nM	14 to 26 nM	26.3 nM	less activity													
CC(C)(Cc1c[nH]c2ccccc12)NCC(O)COc1ccccc1C#N (single isomer, unassigned) [(S)-bucindolol]	0.49 nM	0.5 to 0.6 nM	0.59 nM	more pronounced	318 ± 16 nM	27%	358 ± 32 nM	17%	553 ± 35 nM	35%	352 ± 26 nM	18%	419 ± 34 nM	15%	240 ± 24 nM	23%	
CC(C)NCC(O)COc1ccc(CC(N)=O)cc1 (stereo not shown) [atenolol]																	effect on NO/ONOO− ratio (in words) ([1]; 1.0 and 10.0 μM, three donor groups): failed to produce an effect
CC(C)(Cc1c[nH]c2ccccc12)NCC(O)COc1ccccc1C#N (racemic) [bucindolol, 2-(3-(1-(1H-indol-3-yl)-2-methylpropan-2-ylamino)-2-hydroxypropoxy)benzonitrile]					306 ± 25 nM	22%	321 ± 28 nM	5%	475 ± 27 nM	16%	378 ± 30 nM	12%	422 ± 27 nM	14%	244 ± 29 nM	19%	hazard ratio for the primary endpoint of all-cause mortality ([4]; advanced heart failure, at premature stop of trial, C.I.s 0.78-1.02): 0.90; mortality versus placebo (in words) ([4]; at early termination of BEST): no significant difference in mortality; reduction of mortality or heart failure hospitalization ([4]; entire BEST cohort, p<0.0001): 19%; functional behaviour at the receptor (force development) (β1AR Arg/Arg; high signal transduction, adenylyl cyclase activated by forskolin): inverse agonist; functional behaviour at the receptor (force development) (β1AR Arg/Arg; low levels of signal transduction (low receptor activation)): neutral antagonist; functional behaviour at the receptor (force development) (β1AR Gly carrier; in the presence of forskolin): neutral antagonist; functional behaviour at the receptor (force development) (β1AR Gly carrier; low activation states): inverse agonist; increase in NO/ONOO− ratio ([1]; African American donors): 38%; increase in NO/ONOO− ratio ([1]; Mexican American donors): 23%; increase in NO/ONOO− ratio ([1]; white donors): 49%
